“Also recorded” adds a separate entry of the source.
Test system: ovariectomized female Wistar rats (osteoporosis caused by estrogen deficiency)
Experiment: Ovariectomized female rat model of osteoporosis caused by estrogen deficiency
Format: in vivo
Conditions: two months; for bone volume of proximal tibia vs OVX group: FIG. 1; for apparent bone density of tibia vs OVX group: FIG. 2; for erosion surface (ES/BS) of proximal tibia (bone resorption) vs OVX group: FIG. 3
Text: The purpose of this example is to show the potency of bakuchiol in treating osteoporosis, wherein ovary of a female rat is removed to stimulate osteoporosis caused by estrogen deficiency.
The female Wistar rats of 16 weeks old (unless specified in the other experiment description) were obtained from the stock reared by the Animal breeding center, National Scientific Council in Taipei. These rats were grouped by weights matched in order to distribute the physiological response variation from rats evenly into each group. These rats were grouping as follows: • Baseline group fed with no drug added food (n=8) • Sham operation group fed with no drug added food (Sham) (n=10) • Ovariectomy operation group fed with no drug added food (OVX) (n=8) • Ovariectomy operation group fed with Drug A (5 mg/kg) added food (OVX+A) (n=9) • Ovariectomy operation group fed with Drug B (15 mg/kg) added food (OVX+B) (n=9)
Ovariectomy (removal of ovaries) operation: Ovariectomy was induced using a protocol similar to that described by Wronski et al (Wronski et al, Endocrinology, 123 (2), 681-686 ([…]))
During the experiments, the rats were housed in hanging grid cages in groups of two at 21° C. with a 12 hours dark cycle. Food (Rat-mouse diet III, adequate in 1% of calcium content and 1.2% of phosphate content, Purina, USA) was administered by paired feeding between the experimental and control groups. Pair-feeding was carried out by calculating the average amount of food intake in the Sham group. So give the same amount of food to the OVX, OVX+A (5 mg/kg), OVX+B (15 mg/kg) group animals the following day. These animals were fed with a period of two months except for the baseline group which were killed on the very day of doing ovariectomy or sham operation. Rats of OVX+A and OVX+B groups were fed with the usual food chuck but added certain amount of compound A and B in it respectively. Water was given ad libitum to all rats.
The test drug was weighted according to dose of 5 mg/kg and 15 mg/kg, and added into the usual food chuck powder and mixed with 10% starch paste. After fully mixed, these chuck powder were made into mass manually and dried by air flow oven. The food with added drug to rats was performed by single blind method.
These labeling and bone histomorphometry assessment were done based on standard procedure in bone research (Lin et al, Calcif. Tissue Int., 67, 373-377 (2000)). Specimen were prestained with Villanueva bone stain, then […] embedded in London resin. Undecalcified sections of 7 μm thick were cut using Jung-K microtome (Leica Ltd, USA) and treated with Villanueva stain for observation under light microscopy. Seven μm thick unstained sections were prepared for fluorescent microscopy and assessed with program Osteomeasure (3.0 version, Atlanta, USA). The bone volume (FIG. 1) and eroded surface parameters (FIG. 3) were obtained according to Lin et al. (Lin et al, Calcif. Tissue Int., 67, 373-377 (2000)). The experiment was performed under specific project licences from the Animal Center and IAACU, National Defense Medical Center, National Defense University, Taipei, Taiwan.
The whole tibia and femur were stripped off attached muscles and ligaments after sacrifice. An apparent bone density measurement was done based on Archimedes floating principle on an electronic balance set with densitometry frame (Danielsen et al., Calcif. Tissue Int., 52, 26-33 (1993)). The weight of bone measured in the air was marked as W-air. The weight of the same bone weighed in water will be marked as W-water. The apparent bone density was calculated as [W-air/(W-air minus W-water)](gm/cm^3) (FIG. 2, Bone apparent density of Tibia).

C=C[C@@](C)(/C=C/c1ccc(O)cc1)CCC=C(C)C [Bakuchiol, bakuchiol]
bone volume of proximal tibia vs OVX group (OVX+A, 5 mg/kg in food): increase in the bone volume | apparent bone density of tibia vs OVX group (OVX+A, 5 mg/kg in food): increase | erosion surface (ES/BS) of proximal tibia (bone resorption) vs OVX group (OVX+A, 5 mg/kg in food, 5 mg/kg): inhibiting the bone resorption; also recorded: inhibition of bone erosion (bone resorption) | bone volume of proximal tibia vs OVX group (OVX+B, 15 mg/kg in food): increase in the bone volume | apparent bone density of tibia vs OVX group (OVX+B, 15 mg/kg in food): increase | erosion surface (ES/BS) of proximal tibia (bone resorption) vs OVX group (OVX+B, 15 mg/kg in food): inhibition of bone erosion (bone resorption)

Reference: US7714026B2, “Pharmaceutical composition containing bakuchiol for treating woman osteoporosis” (Sinphar Pharmaceutical Co., Ltd., priority 2004, dated 2010)
